One assay deals with Slc:ICR mice. As to the kind of experiment: Phenylquinone writhing method. Format: in vivo. The conditions noted are these: oral route; reference. How it is done:
Phenylquinone writhing method
The compound (I) of the present invention was administered orally or subcutaneously to Slc:ICR mice weighing 18-20 g. According to the method of E. Siegmund, R. Cadmus and G. Lu [Proc. Soc.Exp.Biol, Med. 95, 729 (1957)], 0.02% phenylquinone in 5% ethanol saline was injected intraperitoneally in a dose of 0.1 ml/10 g body weight 30 min. after administration of the compound (I). The frequency of abdominal writhing was then counted for 20 min. Analgesic effect was indicated by comparing test group with control group.
On the technique in general: In writhing tests, fewer writhes than in controls are read as antinociception.

For assay [1] the following is noted: direct intracerebral administration; cited from earlier work.
The conditions of assay [2]: intravenous route; cited from earlier work.

The values below come from patent US4382923A, “Tetrapeptide acylhydrazides, their production and use” (Takeda Chemical Industries, Ltd., priority 1980, dated 1983).

With `CN1CC[C@]23c4c5ccc(O)c4O[C@H]2[C@@H](O)C=C[C@H]3[C@H]1C5` [morphine], the “effective dose, analgesic activity (abdominal writhing)” value with Slc:ICR mice is listed as 2.5 mg/kg.

For H-Tyr-Gly-Gly-Phe-Leu-OH, the morphinomimetic activity entry in assay [1] is reported as “show morphinomimetic activity”. Further, the analgesic effect result in assay [2] is on record as “do not produce analgesic effects”.

“H-Tyr-Gly-Gly-Phe-Met-OH (H-YGGFM-OH) [enkephalin, pentapeptide isolated from the pig brain]”: in assay [1], the morphinomimetic activity entry is listed as “show morphinomimetic activity”. Besides, the analgesic effect entry in assay [2] is on record as “do not produce analgesic effects”.

Take “β-endorphin (YGGFMTSEKSQTPLVTLFKNAIIKNAYKKGE; Beta-endorphin; UniProt P01189 237-267, looked up) [polypeptide consisting of 31 amino acid moieties, peptide-type analgesic]”: the analgesic effect result in assay [2] was “overt analgesic action”.
